Experimental data reported in patent EP2698384A1, “Detection of synthetic cannabinoids” (priority 2012, dated 2014).
Where two headings read alike, the source gives them in different places.

Experiments:
Assay type in all cases: binding, sheep
[1] = system: Antibody to Immunogen III
Description: (§1) The wells of an enhanced binding 96 well polystyrene microtiter plate were coated with IgG fraction of antiserum raised to Immunogen VI, diluted in 10mM Tris, pH8.5 (125µl/well). The appropriate antibody coating dilution was determined using standard ELISA checkerboard techniques. The plate was incubated overnight at 4°C, washed 4 times over 10 minutes with Tris buffered saline containing Tween 20 (TBST) and tapped dry. Standard solutions of RCS-4 were prepared in TBST at 0, 0.3125, 0.625, 1.25, 2.5, 5, 10 and 20ng/ml, and 50µl of each was added to the appropriate wells (see figure 1). 75µl of conjugate (appropriate hapten-HRP) diluted in Tris buffer (pH 7.2) containing EDTA, D-mannitol, sucrose, thimerosal and BSA, was added to each of the wells. The appropriate dilution of conjugate was also determined using standard ELISA checkerboard techniques. The plate was incubated at 25°C for 1 hour. Excess unbound conjugate was removed by washing 6 times over a 10 minute period with TBST. 125µl oftetramethylbenzidine (TMB) substrate solution was added to each well of the plate that was then incubated for 20 minutes in the dark at room temperature. The reaction was terminated by addition of 125µl 0.2M H2SO4 to each well. The absorbance was then measured at 450nm using a microtiter plate reader. The data are inputted to a computer program called 'KC Junior'. It is a 4 parameter fit curve and allow the calculatation of concentrations between the standard runs. This program is used to calculate the IC50s by dividing the 0ng/ml OD value by 2 and obtaining the concentration value from the curve for this OD.
In a similar manner to that described above, the wells of a 96-well microtiter plate were coated with the IgG fraction of the antiserum raised to Immunogens I, II or III. Standard solutions (JWH-250 for Immunogen III) were applied at 0, 0.625, 1.25, 2.5, 5, 10, 20 and 40ng/ml and conjugate was employed as detection reagent.
(§2) The data set our in Tables 3 and 4 are generated using antibodies raised against the indicated Immunogens in a competitive binding assay with the indicated tracers, using the indicated standards: Table 2
(§3) In order to determine the specificity of the competitive ELISAs, standard solutions of a range of structurally similar synthetic cannabinoids and their metabolites were prepared in TBST. Using the calibration curves generated and employing a single level of cross reactants, these were used to determine the cross-reactivity of each immunoassay with these substances. Table 4: Cross reactivity of the competitive ELISAs for synthetic cannabinoids and their metabolites

[2] = system: Antibody to Immunogen V; details: Cross-reactants at 100 ng/ml, 1000ng/ml, single level of cross reactants
Description: as §1
In a similar manner to that described above, the wells of a 96-well microtiter plate were coated with the IgG fraction of the antiserum raised to Immunogens IV, V, VII or VIII. Standard solutions (RCS-8 for Immunogen V) were prepared in TBST at 0, 1.25, 2.5, 5, 10, 20, 40 and 80ng/ml and conjugate was employed as detection reagent.
as §2, §3

[3] = system: Antibody to Immunogen VI; details: Cross-reactants at 100 ng/ml, 1000ng/ml, single level of cross reactants
Description: as §1, §2, §3

[4] = Cross-reactants at 100 ng/ml, 1000ng/ml, single level of cross reactants
[5] = listed as JWH-164 (JWH-081 7-methoxynaphthyl isomer)

SMILES | %B/B0 [1, 4] | %B/B0 [2] | %B/B0 [3] | other results
CCCCn1cc(C(=O)c2ccc(C)c3ccccc23)c2ccccc21 [JWH-073 4-methylnaphthyl analogue] | 78.03% | 65.84% | 70.97% | –
CC(O)CCn1cc(C(=O)c2cccc3ccccc23)c2ccccc21 (centres unmarked) [JWH-073 N-(3-hydroxybutyl) metabolite] | 94.05% | 63.79% | 72.55% | –
O=C(c1cccc2ccccc12)c1cn(CCCCO)c2ccccc12 [JWH-073 N-(4-hydroxybutyl) metabolite] | 87.63% | 63.73% | 70.57% | –
O=C(O)CCCn1cc(C(=O)c2cccc3ccccc23)c2ccccc21 [JWH-073 N-butanoic acid metabolite] | 97.45% | 70.75% | 76.27% | –
CCCCn1cc(C(=O)c2cccc3ccccc23)c2ccccc21 [JWH-073] | 81.25% | 66.65% | 74.80% | –
CCCCCn1cc(C(=O)c2c(OC)ccc3ccccc23)c2ccccc21 [JWH-081 2-methoxynaphthyl isomer or (JWH-267)] | 85.59% | 70.37% | 86.87% | –
CCCCCn1cc(C(=O)c2cccc3c(OC)cccc23)c2ccccc21 [JWH-081 5-methoxynaphthyl isomer] | 76.35% | 90.40% | 77.74% | –
CCCCCn1cc(C(=O)c2cccc3ccc(OC)cc23)c2ccccc21 [JWH-081 7-methoxynaphthyl isomer (JWH-164)] | 75.18% | 87.25% | 92.27% | %B/B0 ([1]; Cross-reactants at 100 ng/ml, 1000ng/ml, single level of cross reactants, listed as JWH-164 (JWH-081 7-methoxynaphthyl isomer)): 72.63%; %B/B0 [2, 5]: 82.81%; %B/B0 [3, 5]: 89.29%
COc1ccc(C(=O)c2cn(CCCCCO)c3ccccc23)c2ccccc12 [JWH-081 N-(5-hydroxypentyl) metabolite] | 76.44% | 72.78% | 69.47% | –
CCCCCn1c(C)c(C(=O)c2ccc(OC)c3ccccc23)c2ccccc21 [JWH-098] | 74.71% | 81.09% | 78.96% | –
Cc1ccc(C(=O)c2cn(CCCCCO)c3ccccc23)c2ccccc12 [JWH-122 N-(5-hydroxypentyl) metabo lite] | 81.72% | 68.77% | 71.84% | –
CCCCCn1cc(C(=O)c2ccc(C)c3ccccc23)c2ccccc21 [JWH-122] | 69.90% | 69.63% | 75.29% | –
CCCC(C)(C)c1ccc2c(c1)OC(C)(C)[C@@H]1CC=C(C)C[C@@H]21 [JWH-133] | 97.40% | 90.40% | 93.73% | –
CCCCCn1cc(C(=O)c2ccc(CCC)c3ccccc23)c2ccccc21 [JWH-182] | 76.14% | 82.38% | 85.69% | –
O=C(c1ccc2ccccc2c1)c1cn(CCN2CCOCC2)c2ccccc12 [JWH-200 2'-naphthyl isomer] | 99.13% | 75.36% | 20.66% | –
O=C(c1cccc2ccccc12)c1cn(CCN2CCOCC2)c2cccc(O)c12 [JWH-200 4-hydroxyindole metabolite] | 95.93% | 74.79% | 90.44% | –
O=C(c1cccc2ccccc12)c1cn(CCN2CCOCC2)c2ccc(O)cc12 [JWH-200 5-hydroxyindole metabolite] | 96.49% | 82.38% | 93.65% | –
O=C(c1cccc2ccccc12)c1cn(CCN2CCOCC2)c2cc(O)ccc12 [JWH-200 6-hydroxyindole metabolite] | 95.45% | 69.91% | 88.68% | –
CCCCCn1cc(C(=O)Cc2ccc(OC)cc2)c2ccccc21 [JWH-201] | 27.93% | 68.62% | 69.32% | –

SMILES | %B/B0 [1, 4] | %B/B0 [2] | %B/B0 [3] | other results
CCCCCn1cc(C(=O)Cc2ccccc2Cl)c2ccccc21 [JWH-203] | 18.15% | 15.33% | 83.09% | –
CCCCCn1cc(C(=O)Cc2ccc(Cl)cc2)c2ccccc21 [JWH-206 (JWH-203 4-chloro isomer)] | 26.33% | 51.00% | 78.35% | –
CCCCCn1cc(C(=O)c2c(CC)ccc3ccccc23)c2ccccc21 [JWH-210 2-ethylnaphthyl isomer] | 85.02% | 85.10% | 89.90% | –
CCCCCn1cc(C(=O)c2ccc(CC)c3ccccc23)c2cc(O)ccc21 [JWH-210 5-hydroxyindole metabolite] | 87.01% | 79.94% | 86.92% | –
CCCCCn1cc(C(=O)c2cccc3ccc(CC)cc23)c2ccccc21 [JWH-210 7-ethylnaphthyl isomer or JWH-234] | 73.32% | 85.10% | 87.07% | –
CCc1ccc(C(=O)c2cn(CCCCCC(=O)O)c3ccccc23)c2ccccc12 [JWH-210 N-(5-carboxypentyl) metabo lite] | 94.24% | 70.77% | 63.50% | –
CCCCCn1cc(C(=O)c2ccc(CC)c3ccccc23)c2ccccc21 [JWH-210] | 69.64% | 70.20% | 72.07% | –
CCCCCn1cc(C(=O)Cc2ccccc2OC)c2ccccc21 [JWH-250, 2-(2-methoxyphenyl)-1-(1-pentyl-1H-indol-3-yl)ethanone] | 11.91% | 8.74% | 82.17% | IC50 ([1]; standard JWH-250, standard concentration which produces 50% B/B0): 3.850 ng/mL; %B/B0 ([1]; standard curve, JWH-250 1 ng/ml (first row printed 1)): 84%; %B/B0 ([1]; standard curve, JWH-250 1 ng/ml (second row printed 1)): 70%; %B/B0 ([1]; standard curve, JWH-250 3 ng/ml): 59%; %B/B0 ([1]; standard curve, JWH-250 5 ng/ml): 43%; %B/B0 ([1]; standard curve, JWH-250 10 ng/ml): 38%; %B/B0 ([1]; standard curve, JWH-250 20 ng/ml): 29%; %B/B0 ([1]; standard curve, JWH-250 40 ng/ml): 23%
CCCCCn1cc(C(=O)Cc2ccccc2C)c2ccccc21 [JWH-251] | 17.28% | 13.61% | 79.72% | –
CCCCCn1cc(C(=O)Cc2cccc(OC)c2)c2ccccc21 [JWH-302] | 19.97% | 32.66% | 71.16% | –
CCCCCn1cc(C(=O)c2cccc3c(Cl)cccc23)c2ccccc21 [JWH-398 5-chloronaphthyl isomer] | 64.92% | 70.34% | 76.13% | –
O=C(c1ccc(Cl)c2ccccc12)c1cn(CCCCCO)c2ccccc12 [JWH-398 N-(5-hydroxypentyl) metabo lite] | 76.01% | 55.87% | 69.24% | –
CCCCCn1cc(C(=O)c2ccc(Cl)c3ccccc23)c2ccccc21 [JWH-398] | 71.37% | 65.76% | 72.30% | –
O=C(c1cccc2ccccc12)c1c[nH]c2ccccc12 [N-desalkyl JWH-018: LK1012 10CD194] | 99.73% | 81.80% | 87.49% | –
CCCCCn1cc(C(=O)c2ccccc2OC)c2ccccc21 [RCS-4 2-methoxy isomer] | 64.43% | 68.38% | 81.06% | –
CCCCCn1cc(C(=O)c2cccc(OC)c2)c2ccccc21 [RCS-4 3-methoxy isomer] | 58.00% | 66.18% | 41.84% | –
COc1ccc(C(=O)c2cn(CCCC(C)O)c3ccccc23)cc1 (centres unmarked) [RCS-4 N-(4-hydroxypentyl) metabolite] | 66.40% | 71.93% | 5.69% | –
COc1ccc(C(=O)c2cn(CCCCCC(=O)O)c3ccccc23)cc1 [RCS-4 N-(5-carboxypentyl) metabolite] | 91.87% | 60.79% | 4.25% | –
